Reference: PMC5761078 (Cell reports, 2018)
Each block holds one molecule with its values, some of them ahead of it.

Columns and labels:
A1R = target: T1, A1R (Mus musculus, UniProt Q60612); assay: TEpacVV FRET imaging of cAMP in primary neurons; assay type: cell-based; settings: agonist, cAMP decrease, bath application
T1 sequence (Q60612 1-326): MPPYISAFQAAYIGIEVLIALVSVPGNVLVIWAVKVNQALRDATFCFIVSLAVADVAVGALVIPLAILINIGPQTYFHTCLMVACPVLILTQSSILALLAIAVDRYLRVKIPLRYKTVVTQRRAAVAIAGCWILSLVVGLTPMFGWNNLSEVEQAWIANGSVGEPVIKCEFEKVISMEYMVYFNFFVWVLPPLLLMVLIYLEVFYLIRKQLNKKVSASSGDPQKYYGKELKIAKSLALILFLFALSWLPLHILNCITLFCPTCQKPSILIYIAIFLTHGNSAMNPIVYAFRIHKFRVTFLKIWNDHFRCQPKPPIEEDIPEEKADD

[1] = target: D1 dopamine receptor (D1R) (Mus musculus, UniProt Q61616); settings: agonist, cAMP increase; dMSN cell body; bath application
D1 dopamine receptor (D1R), sequence (Q61616 whole entry): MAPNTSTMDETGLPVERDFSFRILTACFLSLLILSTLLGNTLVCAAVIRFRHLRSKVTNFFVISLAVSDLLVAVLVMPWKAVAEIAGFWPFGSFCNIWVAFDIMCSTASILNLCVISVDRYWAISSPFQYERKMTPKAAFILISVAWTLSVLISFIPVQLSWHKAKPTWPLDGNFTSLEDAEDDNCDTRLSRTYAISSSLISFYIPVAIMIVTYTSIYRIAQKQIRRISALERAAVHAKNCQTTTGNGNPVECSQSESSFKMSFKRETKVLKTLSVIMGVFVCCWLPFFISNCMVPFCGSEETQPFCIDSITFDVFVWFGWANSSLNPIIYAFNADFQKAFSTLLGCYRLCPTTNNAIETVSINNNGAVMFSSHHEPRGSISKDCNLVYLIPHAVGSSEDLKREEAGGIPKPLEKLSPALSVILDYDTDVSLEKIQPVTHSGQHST

- EC50 (A1R; dMSN): 14.6 ± 4.1 nM
SMILES: C[C@@]1(O)[C@H](O)[C@@H](CO)O[C@H]1n1cnc2c(NC3CCCC3)nc(Cl)nc21 [2′MeCCPA]

- EC50 (A1R; dMSN cell body): 112 ± 34 nM
SMILES: Nc1ncnc2c1ncn2[C@@H]1O[C@H](CO)[C@@H](O)[C@H]1O [adenosine]

- EC50 [1]: 76.5 ± 13.9 nM
SMILES: NCCc1ccc(O)c(O)c1 [dopamine]
